A short description of one experiment: Escape test. It is filed as in vivo. The following applies: Mus musculus, ip, 0.5 h, read-out: Percentage inhibition (number of attempts to escape). The procedure: Groups of 8 mice were placed in sub groups of 4 in an enclosure from which they could escape by an inclined plane. The number of attempts to escape during 5 minutes were counted half an hour after intraperitoneal administration of the compound under test.

Experiment [1] can be described thus: Post-operative pain following bone surgery, patients. It is filed as in vivo, human (patients). The procedure: The product of Example 1 has been administered to patients suffering from post-operative pain following bone surgery. 10 Patients received the compound at a daily dosage of 150 mg orally. Complete or partial analgesia was felt by 5 patients and slight analgesia by a further 4. When administered intramuscularly at a dosage of 20 to 100 mg per day to 9 patients, the product of Example 1 produced complete analgesia in 5, partial analgesia in 2 and slight analgesia in the remaining 2. […] Eight patients received the product of Example 1 rectally in a dosage of 300 mg per day.

[2] abbreviates: 150 mg daily orally, 10 patients.
Where [3] appears, read: 300 mg per day rectally, eight patients.
[4] abbreviates: 20 to 100 mg per day intramuscularly, 9 patients.
The mark [5] stands for this setting: 50 to 100 mg per day intravenously, slow injection, 13 patients.

As for `Cc1cccc(Nc2ncccc2C(=O)OCCN2CCOCC2)c1C` [Example 1, β-Morpholino ethyl nixylate], the change in vivo at 8 mg/kg in the experiment “Escape test” (8 mg/kg intraperitoneally) was 6%. Moreover, in “Escape test” (16 mg/kg intraperitoneally), the change in vivo at 16 mg/kg is 3%. Besides, the change in vivo at 32 mg/kg in the experiment “Escape test” (32 mg/kg intraperitoneally) is -8%. The change in vivo at 64 mg/kg in the experiment “Escape test” (64 mg/kg intraperitoneally) is -51%. Moreover, the change in vivo at 128 mg/kg in “Escape test” (128 mg/kg intraperitoneally) is -100%. For the same molecule, in experiment [1] (setting [2]), the “complete or partial analgesia” value is 5 patients and the slight analgesia came out at 4 patients. Further, in experiment [1] (setting [3]), the moderate analgesia result is given as “one”, the no analgesia result is given as “the last one no analgesia” and the strong analgesia result is reported as “Six”. Moreover, in experiment [1] (setting [4]), the complete analgesia is 5 patients, the partial analgesia was 2 patients and the slight analgesia is given as 2 patients. Also, in experiment [1] (setting [5]), the complete analgesia is 9 patients, the moderate analgesia is recorded as 3 patients and the no analgesia entry is “no analgesia in the remaining patient”.

(Values after patent publication US3959272A, “Aminoalkyl esters of 2-anilino-nicotinic acids” (Societe Anonyme dite: Hexachime, priority 1972, dated 1976).)
